# From US8372967B2, “Compounds and methods for modulating expression of GCCR” (Isis Pharmaceuticals, Inc., priority 2006, dated 2013)
# Strand notation (5' to 3'): a small letter for the sugar, then the base; units joined by * are phosphorothioate-linked, units joined directly phosphodiester-linked; [ ] holds rarer units or linkages, { } end groups; capitals alone tell only the bases. e = 2'-O-(2-methoxyethyl) (MOE); l = locked nucleic acid (LNA); [5mC] = 5-methylcytosine; d = 2'-deoxy (DNA)
# Key:
# [1] = Liver and kidney weight, body weight, food consumption, glucose, ApoB study (Table 27); type: in vivo, mouse; conditions: Balb/c mice, i.p. twice per week for three weeks
# Protocol: (§1) Antisense compound doses included 2.4, 1.2, 0.6, 0.3 and 0.15 μmol/kg. For antisense compounds 14 nucleotides in length, these doses equate to approximately 12, 6, 3, 1.5 or 0.75 mg/kg, respectively. Shown in Table 25 are the sequences and motifs of the antisense compounds used in this study. […] Bolded residues indicate 2′-O-methoxyethyl moieties and italicized residues indicate methyleneoxy (4′-CH2—O-2′) BNAs. The internucleoside linkages of each compound are phosphorothioate throughout. All cytosine residues of ISIS 147764 and ISIS 372938 are replaced by 5-methyl cytosines. For ISIS 387462, only the cytosine residue in the wing of the compound is replaced by 5-methyl cytosine. ApoB antisense compounds are targeted to publicly available ApoB-100 sequences, including Genbank Accession No. XM—137955.5 (SEQ ID NO: 2).
# (§2) Forty-eight hours following the final injection, mice were sacrificed to evaluate transaminases (Table 26); liver and kidney weight (Table 27); triglyceride, LDL, HDL and free fatty acid levels (Table 28); target mRNA level in liver (Table 29); target protein level in plasma; and oligonucleotide tissue concentration (Table 30). These endpoints were determined using methods described herein and well known to those of ordinary skill in the art.
# Glucose levels also were similar among all treatment groups.
# [2] = ALT and AST levels and adverse side effects, ApoB study (Table 26); type: in vivo, mouse; conditions: Balb/c mice, i.p. twice per week for three weeks, 48 h after final injection
# Protocol: as §1, §2
# ApoB mRNA = ApoB mRNA level in liver, Balb/c mice dosed i.p. twice per week for three weeks (Table 29); EC50 in liver; type: in vivo, mouse; conditions: for % ApoB mRNA Level (relative to saline control): liver, Balb/c mice
# Protocol: Prior to quantitative PCR analysis, primer-probe sets specific to the target gene being measured were evaluated for their ability to be “multiplexed” with a GAPDH amplification reaction. After isolation the RNA is subjected to sequential reverse transcriptase (RT) reaction and real-time PCR, both of which are performed in the same well. RT and PCR reagents were obtained from Invitrogen Life Technologies (Carlsbad, Calif.). […] The RT reaction was carried out by incubation for 30 minutes at 48° C. Following a 10 minute incubation at 95° C. to activate the PLATIN 9M® Taq, 40 cycles of a two-step PCR protocol were carried out: 95° C. for 15 seconds (denaturation) followed by 60° C. for 1.5 minutes (annealing/extension).
# 170 μL of RiboGreen® working reagent (RiboGreen® reagent diluted 1:350 in 10 mM Tris-HCl, 1 mM EDTA, pH 7.5) was pipetted into a 96-well plate containing 30 μL purified cellular RNA. The plate was read in a CytoFluor® 4000 (PE Applied Biosystems) with excitation at 485 nm and emission at 530 nm.
# as §1, §2
# The EC50 for ISIS 387462 in the liver was determined by comparing oligonucleotide concentration in the liver to inhibition of ApoB mRNA.
# [3] = Triglyceride, total cholesterol, HDL, LDL and free fatty acid levels, ApoB study (Table 28); type: in vivo, mouse; design: Free Fatty Acid (FFA): unit not given here; conditions: Balb/c mice, i.p. twice per week for three weeks
# Protocol: as §1, §2
# [4] = Full-length and total antisense compound tissue concentration in liver and kidney, ApoB study (Table 30); type: in vivo, mouse; conditions: Balb/c mice, i.p. twice per week for three weeks, 2.4 μmol/kg
# Protocol: as §1, with “ApoB antisense compounds are targeted to publicly available ApoB-100 sequences, including Genbank Accession No. XM—137955.5 (SEQ ID NO: 2).” left out
# as §2
# To determine whether the observed increase in efficiency with the methyleneoxy (4′-CH2—O-2′) BNA gapmer is due to an increase in oligonucleotide accumulation, full-length and total oligonucleotide concentration in the liver and kidney were determined.
# PTEN mRNA = PTEN mRNA levels in liver, kidney and fat, Balb/c mice, single i.p. 8 μmol/kg (Table 48); type: in vivo, mouse; conditions: 72 h, saline = 100
# Description: (§3) Each dose group consisted of four animals. Shown in Table 46 are the sequences and motifs of the PTEN antisense compounds used in this study. Bolded residues indicate 2′-O-methoxyethyl moieties (2′-MOE) and italicized residues indicate Methyleneoxy BNA nucleotides. Each antisense compound comprises phosphorothioate linkages throughout. In addition, the cytosine residues in the gap of ISIS 384073 and in the wings of ISIS 392056, ISIS 392057, ISIS 392061 and ISIS 392063 are replaced with 5-methylcytosines. Antisense compounds target published PTEN nucleic acids, including Genbank Accession No. U92437.1 (SEQ ID
# (§4) Mice were sacrificed 72 hours following injection to determine serum transaminase levels (Table 47); liver and spleen weights (Table 47); and PTEN mRNA levels in liver, kidney and fat (Table 48), according to procedures described herein and well know to one of ordinary skill in the art.
# [5] = Transaminase levels and organ weights, PTEN study (Table 47); type: in vivo, mouse; conditions: single i.p. 8 μmol/kg, 72 h
# Description: as §3, §4
# rat SGLT2 mRNA [6] = test: Rat SGLT2 mRNA in kidney, 1-10-1 and 1-10-2 MOE gapmers, Sprague-Dawley rats (Table 63); type: in vivo
# rat SGLT2 mRNA [7] = test: Rat SGLT2 mRNA in kidney, 1-10-1 gapmers, 250 nmol/kg (Table 66); type: in vivo; conditions: 250 nmol/kg i.p. twice per week for three weeks, Sprague-Dawley rat kidney
# Protocol: The effect of the above 1-10-1 gapmers (see Table 64 above) on rat SGLT2 mRNA levels. Data are taken from four experiments in which male Sprague-Dawley rats (170-200 g) were dosed twice per week for three weeks with 250 nmol/kg given by intraperitoneal injection. Rats were sacrificed 48 hours following last administration and evaluated for SGLT2 mRNA levels in kidney. Target levels were determined by RT, real-time PCR as described by other examples herein. PCR results were normalized to an internal ISIS control.
# mouse SGLT2 mRNA [8] = test: Mouse SGLT2 mRNA in kidney, 1-10-1 MOE gapmers, Balb/c mice (Table 65); type: in vivo
# Protocol: The short antisense compounds were analyzed for their effect on mouse SGLT2 mRNA levels. Data was taken from three experiments in which Male 6-week old Balb/c mice were dosed twice per week for two weeks with 450, 150, or 50 nmol/kg of one of the above 1-10-1 MOE gapmers given by intraperitoneal injection. Mice were sacrificed 48 hours following last administration and evaluated for SGLT2 mRNA levels in kidney. Target levels were determined by RT, real-time PCR as described by other examples herein. PCR results were normalized to an internal ISIS control.
# mouse SGLT2 mRNA [9] = test: Mouse SGLT2 mRNA in kidney, wing, gap and total length variations (Table 61); type: in vivo
# Protocol: ISIS 3707171-10-1 MOE gapmer was used as a template to make sequence related oligos with varying motifs. The antisense compounds were designed to target different regions of the mouse or rat SGLT2 nucleic acid, using published sequences (GenBank accession number U29881.1, incorporated herein as SEQ ID NO: 1575, and GenBank accession number AJ292928.1, incorporated herein as SEQ ID NO: 1576, respectively).
# The antisense compounds were analyzed for their effect on mouse SGLT2 mRNA levels. Data are ranges taken from three experiments in which mice were dosed twice per week for three weeks with 2.5, 0.5 or 0.1 umol/kg of the above MOE gapmers given by intraperitoneal injection. Mice were sacrificed 48 hours following last administration and evaluated for SGLT2 levels in kidney. SGLT2 mRNA levels were determined by RT, real-time PCR as described by other examples herein. PCR results were normalized to an internal ISIS control.
substance,measurement,setting,value
372938 (antisense eG*eG*dT*dA*d[5mC]*dA*dT*dG*dG*dA*dA*dG*eT*e[5mC]) [compound 372938],Kidney Weight,[1]; 0.15 μmol/kg,98 % of saline control
same,Liver Weight,[1]; 0.15 μmol/kg,96 % of saline control
same,Liver Weight,[1]; 0.3 μmol/kg,91 % of saline control
same,Liver Weight,[1]; 0.6 μmol/kg,96 % of saline control
same,Liver Weight,[1]; 1.2 μmol/kg,90 % of saline control
same,Kidney Weight,[1]; 2.4 μmol/kg,100 % of saline control
same,Liver Weight,[1]; 2.4 μmol/kg,100 % of saline control
same,AST,[2]; 0.3 μmol/kg,60.0 IU/L
same,ALT,[2]; 0.6 μmol/kg,28.0 IU/L
same,ALT,[2]; 2.4 μmol/kg,26.0 IU/L
same,AST,[2]; 2.4 μmol/kg,49.0 IU/L
same,ApoB mRNA level,"ApoB mRNA; Table 30, Balb/c mice, 2.4 μmol/kg",77 % of saline control
same,% ApoB mRNA Level (relative to saline control),ApoB mRNA; 1.2 μmol/kg,90.0%
same,% ApoB mRNA Level (relative to saline control),ApoB mRNA; 2.4 μmol/kg,77.0%
same,LDL,[3]; 0.3 μmol/kg,11.0 mg/dL
same,Total Cholesterol (CHOL),[3]; 0.6 μmol/kg,110 mg/dL
same,Free Fatty Acid (FFA),[3]; 1.2 μmol/kg,1.70
same,LDL,[3]; 1.2 μmol/kg,9.5 mg/dL
same,HDL,[3]; 2.4 μmol/kg,79.0 mg/dL
same,Kidney Full-Length Antisense Compound Tissue Concentration,[4],32.0 µM
same,Kidney Total Antisense Compound Tissue Concentration,[4],34.0 µM
391172 (antisense lC*lT*dA*dG*dC*dC*dT*dC*dT*dG*dG*dA*lT*lT*lT) [compound 391172],% PTEN mRNA levels in Kidney,PTEN mRNA,63%
same,% PTEN mRNA levels in Liver,PTEN mRNA,18%
same,Liver Weight,[5],120 % Saline
392061 (antisense l[5mC]*lT*dA*dG*dC*dC*dT*dC*dT*dG*dG*dA*lT*lT) [compound 392061],% PTEN mRNA levels in Fat,PTEN mRNA,85%
same,% PTEN mRNA levels in Kidney,PTEN mRNA,61%
same,% PTEN mRNA levels in Liver,PTEN mRNA,24%
same,ALT,[5],42.0 IU/L
"ISIS 370717: TAGCCACCAACT 1-10-1 MOE gapmer, phosphorothioate, SGLT-2 (sugars from the 5' end e1 d10 e1, all phosphorothioate, methylation of C not given here)",% change in SGLT2 expression relative to saline,rat SGLT2 mRNA [6]; 50 nmol/kg i.p. twice per week for three weeks,−55%
same,% change in SGLT2 expression relative to saline,rat SGLT2 mRNA [6]; 150 nmol/kg i.p. twice per week for three weeks,−70%
same,% change in SGLT2 expression relative to saline,rat SGLT2 mRNA [6]; 450 nmol/kg i.p. twice per week for three weeks,−70%
same,% change in SGLT2 expression relative to saline,rat SGLT2 mRNA [7],−70%
same,% change in SGLT2 expression relative to saline,mouse SGLT2 mRNA [8]; 50 nmol/kg i.p. twice per week for two weeks,−47.5%
same,% change in SGLT2 expression relative to saline,mouse SGLT2 mRNA [8]; 150 nmol/kg i.p. twice per week for two weeks,−55%
same,% change in SGLT2 expression relative to saline,mouse SGLT2 mRNA [8]; 450 nmol/kg i.p. twice per week for two weeks,−65%
same,% change in SGLT2 expression relative to saline,mouse SGLT2 mRNA [9]; 0.1 umol/kg i.p. twice per week for three weeks,−55%
same,% change in SGLT2 expression relative to saline,mouse SGLT2 mRNA [9]; 0.5 umol/kg i.p. twice per week for three weeks,−70%
